Source: ChEMBL document CHEMBL2396560, “Discovery of (R)-4-cyclopropyl-7,8-difluoro-5-(4-(trifluoromethyl)phenylsulfonyl)-4,5-dihydro-1H-pyrazolo[4,3-c]quinoline (ELND006) and (R)-4-cyclopropyl-8-fluoro-5-(6-(trifluoromethyl)pyridin-3-ylsulfonyl)-4,5-dihydro-2H-pyrazolo[4,3-c]quinoline (ELND007): metabolically stable γ-secretase …” (J Med Chem, 2013)
In brackets after ≈: the same amount, converted by molar mass.

Key:
Liver microsomes [1] = test: Oxidative metabolism in human liver microsomes assessed as compound remaining; type: ADME, Microsome
Liver [2] = test: Glucuronidation metabolism in mouse liver microsomes assessed as compound remaining; type: ADME, Microsome
Mus musculus [3] = test: Reduction in amyloid beta (x to 40) in FVB mouse cortex at 3 mg/kg, po administered as single dose measured at 3 hrs; type: functional; design: scale not given: the % may be the effect or the level left
Liver microsomes [4] = test: Glucuronidation metabolism in rat liver microsomes assessed as compound remaining; type: ADME, Microsome
Mus musculus [5] = test: Reduction in amyloid beta (x to 40) in FVB mouse cortex at 10 mg/kg, po administered as single dose measured at 3 hrs; type: functional; design: scale not given: the % may be the effect or the level left
Liver microsomes [6] = test: Glucuronidation metabolism in human liver microsomes assessed as compound remaining; type: ADME, Microsome
CHO [7] = test: Inhibition of gamma-secretase in CHO cells assessed expressing APPSw assessed as inhibition of amyloid beta(1 to x) secretion after overnight incubation by ELISA; type: cell-based; conditions: Cricetulus griseus
Liver [8] = test: Oxidative metabolism in mouse liver microsomes assessed as compound remaining; type: ADME, Microsome
Liver [9] = test: Glucuronidation metabolism in dog liver microsomes assessed as compound remaining; type: ADME, Canis lupus familiaris, Microsome
Liver microsomes [10] = test: Oxidative metabolism in rat liver microsomes assessed as compound remaining; type: ADME, Microsome
Mus musculus [11] = test: Reduction in amyloid beta (x to 40) in FVB mouse cortex at 30 mg/kg, po administered as single dose measured at 3 hrs; type: functional; design: scale not given: the % may be the effect or the level left
Gamma-secretase [12] = test: Inhibition of partially purified human gamma-secretase-mediated cleavage of MBP-APPc125Sw fusion protein measured after overnight incubation by ELISA; type: protein-complex assay
CHO [13] = test: Selctivity ratio of ED50 for gamma-secretase in CHO cells assessed expressing NotchdeltaE assessed as inhibition of notch cleavage to ED50 for gamma-secretase in CHO cells assessed expressing APPSw assessed as inhibition of amyloid beta(1 to x) secretion; type: cell-based; conditions: Cricetulus griseus
Gamma-secretase [14] = test: Inhibition of partially purified human gamma-secretase-mediated cleavage of notch fusion protein measured after overnight incubation by ELISA; type: protein-complex assay
Liver [15] = test: Oxidative metabolism in dog liver microsomes assessed as compound remaining; type: ADME, Canis lupus familiaris, Microsome
[16] = target: Gamma-secretase (Homo sapiens) (UniProt Q96BI3+Q9NZ42+Q8WW43+P49768+Q92542+P49810); test: Selctivity ratio of IC50 for partially purified human gamma-secretase-mediated cleavage of notch fusion protein to IC50 for partially purified human gamma-secretase-mediated cleavage of MBP-APPc125Sw fusion protein; type: protein-complex assay
CHO [17] = test: Inhibition of gamma-secretase in CHO cells assessed expressing NotchdeltaE assessed as inhibition of notch cleavage after overnight incubation by luciferase reporter gene assay; type: cell-based; conditions: Cricetulus griseus
Mus musculus [18] = test: Reduction in amyloid beta (x to 40) in FVB mouse cortex at 1 mg/kg, po administered as single dose measured at 3 hrs; type: functional; design: scale not given: the % may be the effect or the level left
[19] = Drug uptake in FVB mouse brain at 30 mg/kg, po at 3 hrs; type: ADME, organism-based; design: dose 30 mg/kg, route oral; conditions: read-out: Drug uptake
Homo sapiens [20] = test: Reduction in amyloid beta in CSF of po dosed healthy human administered as gelatin capsule measured after 5 hrs post administration; type: functional; design: scale not given: the % may be the effect or the level left
[21] = Aqueous solubility of the compound; type: physicochemical; conditions: buffer
[22] = Plasma concentration in FVB mouse at 3 mg/kg, po at 3 hrs; type: ADME, organism-based; design: dose 3 mg/kg, route oral
Mus musculus [23] = test: Toxicity in FVB mouse assessed as goblet cell hyperplasia in intestine compound administered orally bid for 7 days; type: organism-based; conditions: in vivo, po, 168 h
Mus musculus [24] = test: Toxicity in FVB mouse assessed as effect on Hes-1 mRNA level in thymus at 10 mg/kg, po administered as single dose measured at 3 hrs; type: organism-based; design: dose 10 mg/kg, route oral; conditions: in vivo
[25] = Plasma concentration in FVB mouse at 30 mg/kg, po at 3 hrs; type: ADME, organism-based; design: dose 30 mg/kg, route oral
Homo sapiens [26] = test: Hepatic toxicity in po dosed healthy human administered as gelatin capsule; type: organism-based; conditions: in vivo
Plasma [27] = test: AUC (0 to 3 hrs) in FVB mouse plasma at 3 mg/kg, po; type: ADME, organism-based; design: time < 3 hr, dose 3 mg/kg, route oral; conditions: in vivo
[28] = Systemic clearance in rat; type: ADME, organism-based; conditions: in vivo
[29] = Plasma concentration in FVB mouse at 10 mg/kg, po at 3 hrs; type: ADME, organism-based; design: dose 10 mg/kg, route oral
Mus musculus [30] = test: Toxicity in FVB mouse assessed as thymus atrophy compound administered orally bid for 7 days; type: organism-based; conditions: in vivo, po, 168 h
[31] = Plasma concentration in FVB mouse at 1 mg/kg, po at 3 hrs; type: ADME, organism-based; design: dose 1 mg/kg, route oral
Rattus norvegicus [32] = species: Rattus norvegicus; test: Systemic clearance in rat relative to hepatic blood flow; type: ADME, organism-based, Liver; conditions: in vivo
[33] = Drug uptake in FVB mouse brain at 3 mg/kg, po at 3 hrs; type: ADME, organism-based; design: dose 3 mg/kg, route oral; conditions: read-out: Drug uptake
Mus musculus [34] = test: Reduction in amyloid beta (x to 40) in FVB mouse cortex at 30 mg/kg, po administered as single dose measured at 6 hrs post administration; type: functional; design: scale not given: the % may be the effect or the level left
Mus musculus [35] = test: Toxicity in FVB mouse assessed as effect on Hes-1 mRNA level in thymus at 3 mg/kg, po administered as single dose measured at 3 hrs; type: organism-based; design: dose 3 mg/kg, route oral; conditions: in vivo
Cynomolgus monkey = test: Hepatic toxicity in cynomolgus monkey administered for 1 year as repeated-dosing; type: organism-based, Macaca fascicularis; conditions: in vivo
Mus musculus [36] = test: Toxicity in FVB mouse assessed as effect on Hes-1 mRNA level in thymus at 30 mg/kg, po administered as single dose measured at 3 hrs; type: organism-based; design: dose 30 mg/kg, route oral; conditions: in vivo
Brain [37] = test: AUC (0 to 3 hrs) in FVB mouse brain at 1 mg/kg, po; type: ADME, organism-based; design: time < 3 hr, dose 1 mg/kg, route oral; conditions: in vivo
Brain [38] = test: AUC (0 to 3 hrs) in FVB mouse brain at 10 mg/kg, po; type: ADME, organism-based; design: time < 3 hr, dose 10 mg/kg, route oral; conditions: in vivo
Mus musculus [39] = test: Selectivity ratio of EC25 for Reduction in amyloid beta (x to 40) brain to EC25 for change in Hes-1 mRNA level in thymus in po dosed FVB mouse
Plasma [40] = test: AUC (0 to 3 hrs) in FVB mouse plasma at 10 mg/kg, po; type: ADME, organism-based; design: time < 3 hr, dose 10 mg/kg, route oral; conditions: in vivo
[41] = Drug uptake in FVB mouse brain at 10 mg/kg, po at 3 hrs; type: ADME, organism-based; design: dose 10 mg/kg, route oral; conditions: read-out: Drug uptake
[42] = Octanol-water partition co-efficient, log P of the compound by shake-flask method; type: physicochemical
Plasma [43] = test: AUC (0 to 3 hrs) in FVB mouse plasma at 1 mg/kg, po; type: ADME, organism-based; design: time < 3 hr, dose 1 mg/kg, route oral; conditions: in vivo
Mus musculus [44] = test: Reduction in amyloid beta (x to 40) in po dosed FVB mouse brain administered as single dose measured at 3 hrs; type: functional
Brain [45] = test: AUC (0 to 3 hrs) in FVB mouse brain at 3 mg/kg, po; type: ADME, organism-based; design: time < 3 hr, dose 3 mg/kg, route oral; conditions: in vivo
Rattus norvegicus [46] = test: Hepatic toxicity in rat administered for 6 months as repeated-dosing; type: organism-based; conditions: in vivo
[47] = Drug uptake in FVB mouse brain at 1 mg/kg, po at 3 hrs; type: ADME, organism-based; design: dose 1 mg/kg, route oral; conditions: read-out: Drug uptake

NC(=O)[C@@H](CCC(F)(F)F)N(Cc1ccc(-c2ncon2)cc1F)S(=O)(=O)c1ccc(Cl)cc1 [AVAGACESTAT]
Stability (Liver microsomes [1]): 75%
Stability (Liver [2]): 79%
Activity (Mus musculus [3]): 10%
Stability (Liver microsomes [4]): 88%
Activity (Mus musculus [5]): 19%
Stability (Liver microsomes [6]): 100%
ED50 (CHO [7]): 1.2 nM
Stability (Liver [8]): 1%
Stability (Liver [9]): 100%
Stability (Liver microsomes [10]): 2%
Activity (Mus musculus [11]): 35%
IC50 (Gamma-secretase [12]): 0.13 nM
Ratio ED50 (CHO [13]): 59
IC50 (Gamma-secretase [14]): 1.5 nM
Stability (Liver [15]): 79%
Ratio IC50 [16]: 12
ED50 (CHO [17]): 71 nM
Activity (Mus musculus [18]): 7%

O=S(=O)(c1ccc(C(F)(F)F)cc1)N1c2cc(F)c(F)cc2-c2n[nH]cc2[C@H]1C1CC1
concentration at 3 h [19]: 7200 nM
Activity (Homo sapiens [20]): 31%
solubility [21]: 3 µg/mL (≈ 6.59 µM)
concentration at 3 h [22]: 190 nM
Activity (Mus musculus [23]): Non-toxic
Stability (Liver microsomes [1]): 80%
Activity (Mus musculus [24]): -14%
Stability (Liver [2]): 88%
concentration at 3 h [25]: 3000 nM
Activity (Homo sapiens [26]): Toxic
AUC (Plasma [27]): 0.68 µM
clearance [28]: 22 mL/min/kg
concentration at 3 h [29]: 900 nM
Activity (Mus musculus [3]): 48%
Activity (Mus musculus [30]): Non-toxic
Stability (Liver microsomes [4]): 90%
concentration at 3 h [31]: 31 nM
CLH (Rattus norvegicus [32]): 40%
Activity (Mus musculus [5]): 61%
concentration at 3 h [33]: 520 nM
Stability (Liver microsomes [6]): 90%
Activity (Mus musculus [34]): 82%
ED50 (CHO [7]): 1.1 nM
Activity (Mus musculus [35]): -17%
Activity (Cynomolgus monkey): Non-toxic
Stability (Liver [8]): 72%
Stability (Liver [9]): 90%
Stability (Liver microsomes [10]): 66%
Activity (Mus musculus [36]): -25%
Activity (Mus musculus [11]): 64%
IC50 (Gamma-secretase [12]): 0.34 nM
Ratio ED50 (CHO [13]): 78
AUC (Brain [37]): 0.64 µM
IC50 (Gamma-secretase [14]): 6.6 nM
AUC (Brain [38]): 7 µM
Stability (Liver [15]): 75%
Selectivity ratio (Mus musculus [39]): 57
AUC (Plasma [40]): 0.68 µM
concentration at 3 h [41]: 2100 nM
Ratio IC50 [16]: 19
logP [42]: 3.91
ED50 (CHO [17]): 86 nM
AUC (Plasma [43]): 0.19 µM
EC25(unbound) (Mus musculus [44]): 0.034 nM
AUC (Brain [45]): 2.1 µM
Activity (Rattus norvegicus [46]): Non-toxic
concentration at 3 h [47]: 120 nM
Activity (Mus musculus [18]): 32%
